The results in this text go back to patent US20220009894A1, “1,2,3,4-TETRAHYDROQUINOXALINE DERIVATIVE, PREPARATION METHOD THEREFOR AND APPLICATION THEREOF” (Abbisko Therapeutics Co., Ltd., priority 2019, published 2022).

The target in one assay is T1, RORγt (Homo sapiens, UniProt P51449).
T1 construct: The plasmid of pFN26A-RORγt-LBD and pG14.35 (Promega, Cat. No. E1370) were co-transfected into HEK 293 cells; expressed in transfected cells; host or cells: HEK 293 cells (Cat. No. GNHu18)
T1 sequence (P51449 269-508 limits assumed): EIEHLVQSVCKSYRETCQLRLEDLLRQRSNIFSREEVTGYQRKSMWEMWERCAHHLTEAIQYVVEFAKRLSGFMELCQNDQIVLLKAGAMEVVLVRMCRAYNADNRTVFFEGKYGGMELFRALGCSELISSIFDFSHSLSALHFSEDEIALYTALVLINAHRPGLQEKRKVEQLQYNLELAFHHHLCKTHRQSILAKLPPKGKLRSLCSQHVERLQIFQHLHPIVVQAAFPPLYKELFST
As to the kind of experiment: RORγt cellular reporter gene detection assay.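 For Cellular Reporter Assay Amax: Ursolic Acid added as 5 µL of 20 µM medium per well.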 It is filed as cell-based. The following applies: 24 hrs; for EC50: HEK 293 cells co-transfected with pFN26A-RORγt-LBD and pG14.35, in presence of antagonist Ursolic acid, top concentration 50 μM; for Cellular Reporter Assay Amax: upper activation limit, HEK 293 cells, in presence of antagonist Ursolic acid. The essentials:
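HEK293 cells co-transfected with RORγt-LBD and luciferase reporter plasmids, treated with Ursolic acid antagonist plus compound in 4-fold dilutions from 50 μM for 24 h at 37° C. Firefly and Renilla luminescence read; EC50 and Amax from four-parameter fit.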

For another assay, the target named is T2, RORγt-LBD (Homo sapiens, UniProt P51449).
T2 sequence (P51449 269-508 limits assumed): T1 sequence (P51449 269-508 limits assumed)
As to the kind of experiment: Time-resolved fluorescence resonance energy-transfer assay (TR-FRET), co-activator peptide recruitment. It is filed as biochemical. The following applies: for EC50: His-RORγt-LBD 30 nM, SRC peptide 500 nM, agonistic activity, averages of one or more measurements, read-out: TR-FRET Biochemical EC50/; for TR-FRET Biochemical Amax: upper activation limit, His-RORγt-LBD, SRC peptide. Details: TR-FRET Biochemical Amax: unit not given here. The method in brief:
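Eu-anti-His-labelled His-RORγt-LBD (30 nM final) recruits biotin-SRC co-activator peptide (500 nM final), detected via APC-streptavidin (5 nM) and Eu-anti-His (0.25 nM). Buffer was Tris/KCl/EDTA at pH 7.0 with 0.01% Triton X-100 and 1 mM DTT. Compounds were tested at 7 points in 5-fold dilutions. Plates were incubated overnight at 4 °C then 1 h at RT, and agonism was read as the 665/615 nm ratio.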

As for `O=C(O)[C@@H]1CCN2c3ccc(-c4cc(F)cc(OC(F)F)c4)cc3N(S(=O)(=O)c3cccc(C(F)(F)F)c3)C[C@@H]2C1` [Example 117, (6aS,8R)-3-(3-(difluoromethoxy)-5-fluorophenyl)-5-((3-(trifluoro-methyl)phenyl)sulfonyl)-6,6a,7,8,9,10-hexahydro-5H-pyri-do[1,2-a]quinoxaline-8-car-boxylic acid], the EC50 came to 0.627 µM on RORγt and 0.148 µM at RORγt-LBD.
`O=S(=O)(c1cccc(C(F)(F)F)c1)N1C[C@@H]2CN(C(CO)CO)CCN2c2ccc(-c3cc(F)cc(OC(F)F)c3)cc21` [Example 70, (S)-2-(8-(3-(difluoromethoxy)-5-fluorophenyl)-6-((3-(trifluorometh-yl)phenyl)sulfonyl)-1,2,4,4a,5,6-hexahydro-3H-pyrazino[1,2-a]quinoxalin-3-yl)propane-1,3-diol]: at RORγt, the EC50 amounted to 0.531 µM and the “Cellular Reporter Assay Amax” value is 4.2. For the same compound, at RORγt-LBD, the EC50 was 0.0642 µM and the “TR-FRET Biochemical Amax” value is given as 0.99.
In the same order, the values of `NC(=S)N1CCN2c3ccc(/C=C/c4c(Cl)cccc4C(F)(F)F)cc3N(S(=O)(=O)c3cccc(C(F)(F)F)c3)C[C@@H]2C1` [Example 65, (S,E)-8-(2-chloro-6-(trifluoro-methyl)styryl)-6-((3-(trifluoro-methyl)phenyl)sulfonyl)-1,2,4,4a,5,6-hexahydro-3H-pyrazino [1,2-a]quinoxaline-3-carbothio-amide] are 0.391 µM, 2.8, 0.0084 µM and 0.89.
In the same order, the values of `C/C(=C\c1ccc2c(c1)N(S(=O)(=O)c1cccc(C(F)(F)F)c1)C[C@@H]1CN(C3(C(N)=O)CCC3)CCN21)c1c(F)cccc1Cl` [Example 79, (S,E)-1-(8-(2-(2-chloro-6-fluorophenyl)prop-1-en-1-yl)-6-((3-(trifluoromethyl)phenyl)sulfonyl)-1,2,4,4a,5,6-hexahydro-3H-pyrazino[1,2-a]quinoxalin-3-yl)cyclobutane-1-carboxamide] are 0.267 µM, 2.8, 0.0282 µM and 1.15.
For `C[C@]1(O)CCN2c3ccc(-c4cc(F)cc(OC(F)F)c4)cc3N(S(=O)(=O)c3cccc(C(F)(F)F)c3)C[C@@H]2C1` [Example 108, (6aS,8S)-3-(3-(difluoromethoxy)-5-fluorophenyl)-8-methyl-5-((3-(trifluoromethyl)phenyl)sulfo-nyl)-6,6a,7,8,9,10-hexa-hydro-5H-pyrido[1,2-a]quinoxalin-8-ol] the same measures were 1.98 µM, 4.0, 0.0554 µM and 0.99.
For the compound `CC(CO)(CO)N1CCN2c3ccc(-c4cc(F)cc(OC(F)F)c4)cc3N(S(=O)(=O)c3cccc(C(F)(F)F)c3)C[C@@H]2C1` [Example 72, (S)-2-(8-(3-(difluoromethoxy)-5-fluorophenyl)-6-((3-(trifluoro-methyl)phenyl)sulfonyl)-1,2,4,4a,5,6-hexahydro-3H-pyra-zino[1,2-a]quinoxalin-3-yl)-2-methylpropane-1,3-diol], on RORγt, the EC50 was 0.238 µM and the “Cellular Reporter Assay Amax” value worked out at 2.6. For the same compound, at RORγt-LBD, the EC50 is 0.0423 µM and the “TR-FRET Biochemical Amax” value is listed as 0.65.
For `C/C(=C\c1ccc2c(c1)N(S(=O)(=O)c1cccc(C(F)(F)F)c1)C[C@@H]1CNCCN21)c1c(F)cccc1Cl` [Example 10, (S,E)-8-(2-(2-chloro-6-fluorophenyl)prop-1-en-1-yl)-6-((3-(trifluoromethyl)phenyl)sulfonyl)-2,3,4,4a,5,6-hexahydro-1H-pyrazino[1,2-a]quinoxaline] the same measures were 0.578 µM, 2.8, 0.0136 µM and 0.81.
